Data taken from patent US20120251492A1, “TRITERPENE DERIVATIVE AND AGENT FOR PREVENTING OR TREATING CHRONIC HEPATITIS C” (MEIJI SEIKA PHARMA CO., LTD., priority 2009, published 2012).
Read-outs that look alike come from different tables or passages of the source.

Columns and labels:
[1] = tested on: HCV (Con1 Strain) replicon; test: microbe, parasite or virus in culture; type: cell-based, hepatitis C virus (HCV) Con1 strain, in Huh7 cells; details: read-out: IC50 Value (50% growth inhibitory concentration)
Excerpt: The compounds represented by the formula (I) were subjected to an HCV replicon assay and a cytotoxicity test.
In order to quantify the degree of HCV virus proliferation, a material was constructed by introducing a luciferase gene as a reporter gene into the genomic gene sequence of HCV Cont strain. The luciferase gene was introduced in the form of fusion with a neomycin-resistant gene, immediately after the IRES (Internal Ribosome Entry Site) of the HCV gene according to the method of Krieger et al., (J. Virol. 75: 4614 (2001)). The constructed RNA was introduced into Huh7 cells by electroporation, and isolated as G418 resistant clone.
The HCV replicon cells comprising the luciferase gene and the neomycin resistance gene were suspended in a culture liquid [D-MEM (SIGMA, D6046) containing 10% of fetal bovine serum (EQUITECH-BIO, INC.)], and seeded onto 96-well plates at 5000 to 8100 cells/well. Test compounds were added at various concentrations, and the cells were cultured under 5% CO2 at 37° C. for 3 days. For adding the test compounds, solutions of the test compounds dissolved in dimethyl sulfoxide (DMSO) were used, and diluted with the culture liquid to appropriate concentrations before use. The experiment was conducted with the final concentrations of DMSO used for dissolving the test compounds being 0.4% during the culturing of the replicon cells. To wells to which no test compound was added, DMSO was added with a final concentration of 0.4%.
Assay plates were prepared for two systems; one of the assays was conducted on a white plate, and the other was conducted on a clear plate. After the culturing for treatments with the test compounds was completed, the white plate was subjected to chemiluminescence measurement by using a Steady-Glo Luciferase Assay System (Promega, E2520) in order to detect effects on HCV replicon proliferation. A EnVision multilabel counter (PerkinElmer 2102) was used for the chemiluminescence measurement. While the value obtained when no test compound was added was taken as 0% inhibition, the inhibitory ratios by the treatments with the agents were calculated.
Regarding the HCV replicon assay, IC50s (50% growth inhibitory concentrations) of the agents were calculated, with the value obtained when no agent was added being taken as 0% inhibition.

[2] = Pharmacokinetics study in mice; type: in vivo; details: Balb/c mice, male, oral 20 mg/kg suspended in olive oil, LC-MS/MS; for AUC / Cmax / half-life: mouse, plasma; for AUC: read-out: AUC (area under the plasma drug concentration-time curve); for Cmax: read-out: Cmax (maximum plasma concentration); for half-life: read-out: t1/2 (plasma half-life) (converted)
Protocol: Balb/c mice (male, 7 to 8-week old) were used (3 or more mice per group). Each test compound suspended in olive oil was orally administered at 20 mg/kg, and blood was collected from the jugular vein after 2, 6, and 24 hours, or after 2, 4, 6, 8, 24, and 48 hours. The plasma drug concentration was measured by using a liquid chromatograph/mass spectrometry/mass spectrometry (LC-MS/MS). In addition, pharmacokinetics parameters were obtained from change in the obtained plasma concentration.

[3] = Hepatitis C virus, Huh-7, 72 h, HCV replicon cells (Huh7) with luciferase gene, cultured 3 days with test compound, 0.4% DMSO

SMILES: CN(C)Cc1ccc(CO[C@@H]2CC(C)(C)C[C@H]3C4=CCC5[C@@]6(C)CC[C@H](O)[C@](C)(CO)C6CC[C@@]5(C)[C@]4(C)CC[C@@]23C)cc1 (stereo partly drawn) [Compound 10, 22β-(4-dimethylaminomethylbenzyloxy)olean-12-ene-3β,24-diol]
- IC50 [1, 3]: 3.68 µM

SMILES: CC1(C)C[C@@H](OCc2ccc(CO)cc2)[C@]2(C)CC[C@]3(C)C(=CCC4[C@@]5(C)CC[C@H](O)[C@](C)(CO)C5CC[C@]43C)[C@@H]2C1 (stereo partly drawn) [Compound 3, 22β-(4-hydroxymethylbenzyloxy)olean-12-ene-3β,24-diol]
- IC50 ([1]; Hepatitis C virus, Huh-7, 72 h): 1.56 µM

SMILES: C#CCO[C@@H]1CC(C)(C)C[C@H]2C3=CCC4[C@@]5(C)CC[C@H](O)[C@](C)(CO)C5CC[C@@]4(C)[C@]3(C)CC[C@@]12C (stereo partly drawn) [Compound 2, 22β-(2-propynyloxy)olean-12-ene-3β,24-diol]
- IC50 [1, 3]: 5.73 µM
- AUC [2]: 44700 ± 16300 ng·h/mL
- Cmax [2]: 2800 ± 1000 ng/mL
- half-life [2]: 600 ± 72 min

SMILES: CC1(C)C[C@@H](OCc2ccccc2)[C@]2(C)CC[C@]3(C)C(=CCC4[C@@]5(C)CC[C@H](O)[C@](C)(C(=O)O)C5CC[C@]43C)[C@@H]2C1 (stereo partly drawn) [Compound 12, 22β-benzyloxyolean-12-ene-3β-hydroxy-24-oic acid]
- IC50 [1, 3]: 5.54 µM
- AUC [2]: 74700 ± 11000 ng·h/mL
- Cmax [2]: 4800 ± 1100 ng/mL
- half-life [2]: 714 ± 162 min

SMILES: CC1(C)C[C@@H](OCc2ccc(C=O)cc2)[C@]2(C)CC[C@]3(C)C(=CCC4[C@@]5(C)CC[C@H](O)[C@](C)(CO)C5CC[C@]43C)[C@@H]2C1 (stereo partly drawn) [Compound 4, 22β-(4-formylbenzyloxy)olean-12-ene-3β,24-diol]
- IC50 [1, 3]: 3.59 µM

SMILES: CC1(C)C[C@@H](OCc2ccc(C(=O)O)cc2)[C@]2(C)CC[C@]3(C)C(=CCC4[C@@]5(C)CC[C@H](O)[C@](C)(CO)C5CC[C@]43C)[C@@H]2C1 (stereo partly drawn) [Compound 1, 22β-(4-carboxybenzyloxy)olean-12-ene-3β,24-diol]
- IC50 [1, 3]: 13.5 µM

SMILES: CO[C@@H]1CC(C)(C)CC2C3=CCC4[C@@]5(C)CC[C@H](O)[C@](C)(C(=O)O)C5CC[C@@]4(C)[C@]3(C)CC[C@]21C (stereo partly drawn) [Compound 14, 3β-hydroxy-22β-methoxyolean-12-en-24-oic acid]
- IC50 [1, 3]: 5.57 µM
- AUC [2]: 81100 ± 18300 ng·h/mL
- Cmax [2]: 4800 ± 1100 ng/mL
- half-life [2]: 834 ± 60 min

SMILES: CO[C@@H]1CC(C)(C)C[C@H]2C3=CC[C@@H]4[C@@]5(C)CC[C@H](O)[C@](C)(CO)[C@@H]5CC[C@@]4(C)[C@]3(C)CC[C@@]12C [Compound 17, 22β-methoxyolean-12-ene-3β,24-diol, reference compound]
- IC50 ([1]; HCV replicon cells (Huh7) with luciferase gene, cultured 3 days with test compound, 0.4% DMSO): > 20 µM
- AUC (area under the plasma drug concentration-time curve) [2]: 35.6 ± 9.7 µg·h/mL
- Cmax (maximum plasma concentration) [2]: 2.6 ± 0.7 µg/mL
- t1/2 (plasma half-life) [2]: 7.4 ± 0.4 h

SMILES: CC1(C)C[C@@H](OCCCO)[C@]2(C)CC[C@]3(C)C(=CCC4[C@@]5(C)CC[C@H](O)[C@](C)(CO)C5CC[C@]43C)[C@@H]2C1 (stereo partly drawn) [Compound 7, 22β-(3-hydroxypropoxy)olean-12-ene-3β,24-diol]
- IC50 [1, 3]: 5.32 µM

SMILES: CC1(C)C[C@@H](OCc2ccc(CNc3ccccc3)cc2)[C@]2(C)CC[C@]3(C)C(=CCC4[C@@]5(C)CC[C@H](O)[C@](C)(CO)C5CC[C@]43C)[C@@H]2C1 (stereo partly drawn) [Compound 11, 22β-(4-phenylaminomethylbenzyloxy)olean-12-ene-3β,24-diol]
- IC50 [1, 3]: 13 µM

SMILES: CC1(C)C[C@@H](OCCCOc2ccc(C(=O)O)cc2)[C@]2(C)CC[C@]3(C)C(=CCC4[C@@]5(C)CC[C@H](O)[C@](C)(CO)C5CC[C@]43C)[C@@H]2C1 (stereo partly drawn) [Compound 8, 22β-(3-(4-carboxyphenyl)oxypropoxy)olean-12-ene-3β,24-diol]
- IC50 [1, 3]: 6.99 µM

SMILES: CC1(C)C[C@@H](OCc2ccc(CN3CCOCC3)cc2)[C@]2(C)CC[C@]3(C)C(=CCC4[C@@]5(C)CC[C@H](O)[C@](C)(CO)C5CC[C@]43C)[C@@H]2C1 (stereo partly drawn) [Compound 9, 22β-(4-(4-morpholylmethyl)benzyloxy)olean-12-ene-3β,24-diol]
- IC50 [1, 3]: 9.13 µM

SMILES: C=CCO[C@@H]1CC(C)(C)C[C@H]2C3=CCC4[C@@]5(C)CC[C@H](O)[C@](C)(C(=O)O)C5CC[C@@]4(C)[C@]3(C)CC[C@@]12C (stereo partly drawn) [Compound 13, 22β-allyloxyolean-12-ene-3β-hydroxy-24-oic acid]
- IC50 [1, 3]: 7.05 µM
- AUC [2]: 74900 ± 16300 ng·h/mL
- Cmax [2]: 4800 ± 1500 ng/mL
- half-life [2]: 780 ± 330 min
